Data on four compounds can be found in patent publication EP0958817A1, “COMPOSITION CONTAINING DIARYLALKANE DERIVATIVE AS THE ACTIVE INGREDIENT FOR TREATING OR PREVENTING PANCREATITIS” (SANKYO COMPANY LIMITED, priority 1996, dated 1998).

SMILES strings stand for the structures. Structures can show the parent of a compound that is named as a salt.

The test system of test [1] is pancreatitis induced by choline-deficient ethionine supplemented diet. In words: Inhibitory activity against pancreatitis induced by choline-deficient ethionine supplemented diet (CDE diet); serum amylase activity as index of pancreatitis. It counts as in vivo, ICR female mouse. The note with it: serum 64 h after start of CDE diet, twice a day, 6 times in total. How it is done: Pancreatitis of a mouse was induced by choline-deficient ethionine supplemented diet (CDE diet). A modified method of Lombardi et al [Lombardi et al, Am. J. Pathol., 79, 465-480 (1975)] was carried out. Briefly, the pancreatitis was induced by feeding an ICR female mouse (Charles River Japan, Inc. three-weeks old) choline deficient diet to which 0.5% (w/w) DL-ethionine was added (CDE diet). Sixty four hours after the feeding with the CDE diet, approximately 0.3 ml of the blood was collected from the heart of the mouse under anesthesia with ether. The collected blood was allowed to stand at room temperature for 2 hours to coagulate, followed by centrifugation (at 12,000 rpm for 10 minutes), to obtain serum. The amylase activity in the serum was measured by an amylase activity assay kit (Amylase B-Test Wako, product of Wako Pure Chemical Industries, Ltd.) and was designated as an index of pancreatitis. The test compound suspended in a 0.5% (w/v) tragacanth solution was administered to mice one hour before the feeding of the CDE diet and was administered twice a day, 6 times in total. The control group was fed with the CDE diet to induce pancreatitis but the test compounds were not administered to the control group. The normal group was not fed with the CDE diet but was fed with ordinary food.

The test system of test [2] is cerulein-induced pancreatitis. In words: Inhibitory activity against cerulein-induced pancreatitis; serum amylase activity as index of pancreatitis. The test is classed as in vivo, Wistar rats. The settings on record: Table 6, serum 3 h after final cerulein (20 µg/kg i.p., four times), control group 48.7. As to the method: Induction of experimental acute pancreatitis in rats was carried out by a modified method of Otsuki et al [Otsuki et al, Dig. Dis. Sci., 35, 242-250 (1990)]. Briefly, cerulein (20 µg/kg) was intraperitoneally administered to Wistar rats (Japan SLC, weight: about 200 g) every one hour, four times in total. Three hours after the final administration, the blood was collected from the jugular vein of the rat under anesthesia with ether. The collected blood was allowed to stand at room temperature for 2 hours to coagulate, followed by centrifugation (at 12,000 rpm for 10 minutes), to obtain serum. The amylase activity of the serum was measured using an amylase activity assay kit (Amylase B-Test Wako, product of Wako Pure Chemical Industries, Ltd.) and was designated as an index of pancreatitis. The test compound suspended in a 0.5% (w/v) tragacanth solution was orally administered 30 minutes before the first injection of the cerulein. The control group is defined as a group in which pancreatitis was induced, but to which the test compounds were not administered.

The mark [3] stands for this setting: Table 4, dose 10 mg/kg, control group 64.7, normal group 6.6.
Setting [4] is: Table 4, dose 30 mg/kg, control group 64.7, normal group 6.6.

Turning to `COc1cc(CCc2cc(F)ccc2OCC[C@@H]2C[C@@H](O)CN2C)ccc1F` [Preparation Example 2, (2R,4R)-2-[2-[4-Fluoro-2-[2-(4-fluoro-3-methoxypheny)ethyl]phenoxy]ethyl]-4-hydroxy-1-methylpyrrolidine hydrochloride], the Amylase activity in test [1] (setting [3]) was found to be 53.7 IU/ml; in test [1] (setting [4]), 31.2 IU/ml.
For the compound `CCCCCCCCCCCC(=O)O[C@@H]1C[C@@H](CCOc2ccccc2CCc2cccc(OC)c2)N(C)C1.Cl` [Preparation Example 3, (2R,4R)-4-Lauroyloxy-2-[2-[2-[2-(3-methoxyphenyl)ethyl]phenoxy]ethyl]-1-methylpyrrolidine hydrochloride], the Amylase activity in test [1] (Table 3, dose 10 mg/kg, control group 71.7, normal group 7.4) is 35.0 IU/ml; in test [1] (Table 3, dose 30 mg/kg, control group 71.7, normal group 7.4) it was 32.1 IU/ml; in test [2] (dose 10 mg/kg orally 30 minutes before first cerulein), 43.6 IU/ml; in test [2] (dose 30 mg/kg orally 30 minutes before first cerulein) it was 34.9 IU/ml; in test [2] (dose 100 mg/kg orally 30 minutes before first cerulein), 31.7 IU/ml.
Turning to `COc1cc(CCc2ccccc2OCC[C@@H]2C[C@@H](O)CN2C)ccc1F.Cl` [Preparation Example 4, (2R,4R)-2-[2-[2-[2-(4-Fluoro-3-methoxyphenyl)ethyl]phenoxy]ethyl]-4-hydroxy-1-methylpyrrolidine hydrochloride], the Amylase activity was 48.4 IU/ml in test [1] (setting [3]) and 30.5 IU/ml in test [1] (setting [4]).
Turning to `COc1cccc(CCc2ccccc2OCC[C@@H]2C[C@@H](O)CN2C)c1.Cl` [Preparation Example 18, (2R,4R)-4-Hydroxy-2-[2-[2-[2-(3-methoxyphenyl)ethyl]phenoxy]ethyl]-1-methylpyrrolidine hydrochloride], the Amylase activity in test [1] (Table 5, dose 10 mg/kg, control group 48.0, normal group 8.7) amounted to 25.7 IU/ml; in test [1] (Table 5, dose 30 mg/kg, control group 48.0, normal group 8.7) it was 21.8 IU/ml.
